The nature of assay [1]: growth suppression of PTEN-null colon cells, dose response, cell-based, HCT116 PTEN knockout (AID 1047).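 Further: HCT116 colon tumor cells with PTEN knocked out; cells exposed to compound for 60 hours before readout; potency for loss of cell viability measured by luminescence.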 In kind it is functional.
Assay [2] is described as follows: growth suppression of beta-catenin-knockout colon cells, dose response, cell-based, HCT116, human colon tumor (AID 1045).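 Further: HCT116 colon tumor cells with beta catenin knocked out; cells exposed to compound for 60 hours.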 In kind it is functional.
The nature of assay [3]: inhibitors of intracellular T. cruzi replication, confirmation, NIH3T3 host cells, beta-gal luminescence (AID 2044).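 Further: intracellular parasites grown in NIH/3T3 mouse fibroblasts as host cells; luminescent beta-galactosidase reporter signal from transgenic T. cruzi replicating inside host cells; inhibitors lower the luminescence signal.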 In kind it is functional, cell-based.
Assay [4] can be described thus: cytotoxicity toward NIH3T3 fibroblasts, dose response, counter-screen, cell-based, ATP luminescence, mouse fibroblasts (AID 2010).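 Further: cells exposed to compound for about 90 hours before reading.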 The format is functional.
A short description of assay [5]: C. albicans growth with fluconazole, confirmation, fluorescence, retest (AID 2467). The format is functional, cell-based.
The nature of assay [6]: NIH-3T3 fibroblast cytotoxicity, dose response, cytotoxicity control, cell-based, fluorescence, Alamar Blue, secondary assay (AID 2327).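 Further: NIH-3T3 mouse fibroblasts cultured with fluconazole at 8 µg/mL.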 In kind it is functional. In general terms: Resazurin is reduced to fluorescent resorufin, in cell work by metabolically active cells.
Assay [7] is described as follows: HepG2 cell cytotoxicity, dose response, cytotoxicity control for Shn3 inhibitor project, CellTiter-Glo, cherry-picked (AID 624134). The format is functional, cell-based.
Assay [8] can be described thus: Shn3 3'UTR reporter inhibitors, dose response, cell-based, Clone20 osteoblasts, firefly luciferase, cherry-picked (AID 624132).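 Further: firefly luciferase luminescence from reporter carrying the Shn3 3'UTR in osteoblasts.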 The format is functional.
The nature of assay [9]: control 3'UTR Renilla luciferase suppression, dose response, counter-screen for Shn3 inhibitor project, cell-based, Clone20-Shn3RL, cherry-picked (AID 624133). The format is functional. For orientation: Counterscreens check selectivity or assay interference.
Assay [10] in a line: Luminescence Cell-Based Dose Retest to Confirm Inhibitors of Cancer Stem Cells. [Related pubchem assays (depositor defined):AID2717, AID2721]. The format is functional. The note with it: Homo sapiens.
A further assay concerns INS1. As to the kind of experiment: beta cell apoptosis inhibitors, cytokine rescue, dose response, luminescence, retest (AID 449756).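 Further: cell death triggered by IL-1 beta plus TNF-alpha plus IFN-gamma mixture; protective hits raise ATP signal compared with cytokine alone wells.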 The note with it: Rattus norvegicus. In kind it is functional, cell-based.
In assay [11] the target is T1, Rac GTPase-activating protein 1 (Homo sapiens, UniProt Q9H0H5).
T1 sequence (Q9H0H5 whole entry): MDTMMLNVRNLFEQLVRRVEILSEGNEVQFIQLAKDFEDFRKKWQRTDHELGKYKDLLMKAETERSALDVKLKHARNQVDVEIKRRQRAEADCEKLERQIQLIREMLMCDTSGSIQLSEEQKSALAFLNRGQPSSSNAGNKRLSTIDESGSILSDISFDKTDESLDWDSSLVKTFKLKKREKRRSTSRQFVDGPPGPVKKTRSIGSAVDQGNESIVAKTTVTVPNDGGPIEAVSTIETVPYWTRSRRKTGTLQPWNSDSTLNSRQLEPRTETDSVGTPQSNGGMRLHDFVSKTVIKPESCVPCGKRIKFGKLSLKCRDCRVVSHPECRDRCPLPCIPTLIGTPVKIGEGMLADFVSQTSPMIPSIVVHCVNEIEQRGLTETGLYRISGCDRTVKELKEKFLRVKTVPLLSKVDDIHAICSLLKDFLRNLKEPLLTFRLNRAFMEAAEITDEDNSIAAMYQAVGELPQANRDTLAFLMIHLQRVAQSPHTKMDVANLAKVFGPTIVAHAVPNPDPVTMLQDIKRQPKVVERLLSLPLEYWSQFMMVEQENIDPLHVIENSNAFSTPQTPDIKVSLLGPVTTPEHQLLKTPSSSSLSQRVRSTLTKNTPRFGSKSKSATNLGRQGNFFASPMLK
The assay is described as follows: MgcRacGAP GTPase-activating activity inhibitors, confirmation, biochemical, ADP Hunter fluorescence, primary and confirmatory (AID 624330). The format is functional.

Assay [12] in a line: inhibitors of firefly luciferase expression or activity, dose response, H4 neuroglioma cells, luminescence (AID 1990). The format is functional, cell-based.
The nature of assay [13]: Luminescence Cell-Based Dose Response HTS to Identify Inhibitors of 5'UTR Stem-Loop Driven Prion Protein mRNA Translation in H4 Neuroglioblastoma Cells. [Related pubchem assays: 1827 (Project Summary), 1813 (Primary HTS)]. In kind it is functional.
The nature of assay [14]: inhibitors of SNCA 5'UTR-driven reporter translation, confirmation, H4 neuroglioma cells, luminescence (AID 1988). The format is functional, cell-based.
For the next assay, the system named is Streptococcus. The assay is described as follows: Group A Streptococcus viability loss, dose response, counter-screen for streptokinase expression inhibitor project, luminescence, BacTiterGlo (AID 1915).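 Further: potency for reduction of bacterial viability or growth.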 In kind it is functional, organism-based.
In assay [15] the test system is Streptococcus sp. 'group A'. As to the kind of experiment: growth inhibition of control SK(-) GAS strain, dose response, counter-screen for streptokinase expression inhibitor project, luminescence, kanamycin, BacTiterGlo, confirmation (AID 1900). The format is functional, organism-based.
In another assay the target is Paired box protein Pax-8 (Homo sapiens, UniProt Q06710). The assay is described as follows: inhibitors of PAX8-driven TPO luciferase reporter, dose response, RMG-I cells, cherry-pick (AID 687027).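 Further: luciferase reporter driven by Pax8 target thyroperoxidase promoter measured by SteadyGlo luminescence.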 In kind it is functional, cell-based.
Paired box protein Pax-8, sequence (Q06710 whole entry): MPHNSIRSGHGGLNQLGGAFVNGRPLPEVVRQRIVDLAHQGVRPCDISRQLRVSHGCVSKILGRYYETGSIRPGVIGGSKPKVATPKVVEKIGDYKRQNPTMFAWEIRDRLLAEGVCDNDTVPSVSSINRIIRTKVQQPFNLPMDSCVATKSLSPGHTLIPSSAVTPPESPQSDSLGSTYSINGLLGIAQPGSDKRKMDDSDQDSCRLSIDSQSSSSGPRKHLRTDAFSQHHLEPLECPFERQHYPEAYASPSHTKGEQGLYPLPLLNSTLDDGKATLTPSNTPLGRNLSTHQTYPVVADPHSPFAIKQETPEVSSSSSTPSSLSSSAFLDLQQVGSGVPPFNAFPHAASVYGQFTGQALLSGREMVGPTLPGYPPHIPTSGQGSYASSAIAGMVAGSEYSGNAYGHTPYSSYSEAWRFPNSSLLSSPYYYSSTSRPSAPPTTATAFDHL

Results on 42 compounds are retold here after ChEMBL document CHEMBL1201862, “PubChem BioAssay data set” (2004).

Calls of active or inactive are those of the source.

A word on the EC50: it is the concentration that produces a half-maximal response. With `Cc1ccc2[nH]c(SCC(=O)Nc3cc([N+](=O)[O-])ccc3F)nc2c1`, the EC50 is 14 µM (active) in [1] and 20.6 µM (active) in [2].
Consider `Clc1ccc(OCCn2ccnc2)c2ccccc12`, for which the EC50 in assay [3] is 3.91 µM (active); in [4] it was > 60 µM (not active); in assay [5], 3.78 µM (active); in [6] it was > 150 µM (inactive).
As to `CC(C)CC(=O)NCc1ccc2[nH]c3c(c2c1)CCCC3`, the values for the EC50 in assay [5] and in assay [6] were > 38 µM (not active) and > 160 µM (inactive), respectively.
On the same counts, the results for `CCc1ccc(C(=O)NNc2ccc(F)cc2)cc1` are > 38 µM (not active) and 12.2 µM (active).
As usually defined, the AC50 is the midpoint of the concentration-response curve, whichever way the signal moves. `Cc1onc(-c2ccccc2Cl)c1C(=O)N1CCC(Cc2ccccc2)CC1`: the AC50 in assay [7] was 46.3 µM (active); in assay [8], 2.29 µM (active); in assay [9], 4.54 µM (active).
Regarding `O=C(c1ccc(COc2c(F)c(F)cc(F)c2F)o1)N1CCN(c2ccc(Cl)cc2)CC1`, the figures for the EC50 in [1] and in assay [2] were 21.5 µM (active) and 11.7 µM (active), respectively.
On to `O=C(NNc1ccccc1)C(CCO)C(=O)NNc1ccccc1`, for which the EC50 in assay [5] is > 38 µM (not active); in [6], 19.6 µM (active).
On the same counts, the results for `CCCC(=O)NC(=S)NNC(=O)c1ccc([N+](=O)[O-])cc1` are 10.1 µM (active) and > 160 µM (inactive).
Take `CCCCCCSc1ccc(-c2nc3ccccn3c2NCCCC)cc1`: the AC50 in assay [10] is 4.4 µM (active).
With `COC(=O)c1ccc2c(=O)n(Cc3ccco3)c(SCC(=O)Nc3ccccc3Cl)nc2c1`, the results for the EC50 in [1] and in [2] were 37.5 µM (active) and 44.3 µM (active), respectively.
In the same order, the values of `COc1ccc(OC)c(NC(=O)c2cc(-c3cc(Cl)ccc3O)[nH]n2)c1` are 36.7 µM (active) and 39.2 µM (active).
For the compound `C=CCCc1ccc(C#N)c(SCc2c(C(=O)OCC)c3cc(OC(C)=O)c(Br)cc3n2C)n1`, the AC50 was 9.37 µM (active) in assay [7], 1.14 µM (active) with INS1 and 2.75 µM (active) in [9].
In general, IC50 refers to the concentration that gives 50% inhibition. Turning to `COc1cc(/C=C/C(=O)OCC(=O)Nc2c(C)n(C)n(-c3ccccc3)c2=O)ccc1O`, the IC50 in [11] was 63.9 µM (active).
As to `COc1cccc(NP(=O)(Oc2ccccc2)Oc2ccccc2)c1`, the EC50 was > 120 µM (not active) in assay [12], 59.4 µM (active) in assay [13] and > 120 µM (not active) in assay [14]. The AC50 in [10] was 0.935 µM (active).
Regarding `c1ccc(CC2CCN(Cc3ccccn3)CC2)cc1`, the IC50 in [11] was 216 µM (active).
With `Cc1cc(C)c(S(=O)(=O)Nc2nnc(C3CCCCC3)s2)c(C)c1`, the results for the EC50 in assay [5] and in [6] were 1.93 µM (active) and > 160 µM (inactive), respectively.
As for `COc1cc(/C=C(/NC(=O)c2ccccc2)C(=O)Nc2ccc(O)cc2)c([N+](=O)[O-])cc1OC`, in assay [11], the IC50 is 55.7 µM (active).
For the compound `CCCNc1nc2c(c(=O)n(C)c(=O)n2C)n1Cc1cccc(C)c1`, the AC50 is > 70 µM (inactive) in [7], 1.91 µM (active) in assay [8] and 8.85 µM (active) in assay [9].
For the compound `COc1cc(OC)cc(C(=O)N2CCN(Cc3ccccc3Br)CC2)c1`, in assay [11], the IC50 is 325 µM (active).
In the case of `O=C(O)c1ccc(Nc2cnc3ccccc3n2)cc1`, the EC50 is > 38 µM (not active) in [5] and > 160 µM (inactive) in assay [6].
Take `O=C(Nc1ccc(F)cc1)c1nc[nH]c1C(=O)Nc1ccc([N+](=O)[O-])cc1`: the EC50 in assay [1] is 17.6 µM (active); in assay [2], 11.2 µM (active).
As for `CCc1ccc(OCC(=O)NC(N=C(S)Nc2ccc(C)cc2C)C(Cl)(Cl)Cl)cc1` (stereo unspecified), in the assay with INS1, the AC50 is 7.48 µM (active). In addition, the EC50 was 30.8 µM (active) in assay [1], 8.13 µM (active) with Streptococcus, 41.1 µM (active) in assay [2] and 3.3 µM (active) in assay [15].
For `c1ccc(-n2nnnc2Oc2cccc3cccnc23)cc1`, the EC50 in assay [1] was 22.6 µM (active); in assay [2], 20.8 µM (active).
`CCOC(=O)C1=C(CSc2nc3ccccc3s2)NC(=O)NC1c1ccc(OC)cc1` (stereo unspecified): the AC50 in assay [10] is 5.99 µM (active).
For the compound `CC1CCN(CCc2nc3cc(NS(=O)(=O)c4ccccc4)ccc3n2C)CC1`, the AC50 on Paired box protein Pax-8 was 12.1 µM (active).
As to `Cc1ccc(NS(=O)(=O)c2cc([N+](=O)[O-])ccc2NN=C(S)Nc2cc(C)ccc2C)c(C)c1`, the AC50 is 4.42 µM (active) with INS1 and 1.12 µM (active) in [10].
`Cc1ccc(CCc2nnc(SCC(=O)Nc3cccc(Cl)c3)n2-c2ccccc2)o1`: the AC50 on Paired box protein Pax-8 is 25.4 µM (active).
Turning to `O=C(CNCc1cccs1)Nc1ccc(N2CCCCCC2)cc1`, the IC50 in [11] is 107 µM (active).
On to `CCN(CC)S(=O)(=O)c1cccc(NC(=O)CNc2cccc(S(=O)(=O)N3CCOCC3)c2)c1`, for which the AC50 in assay [7] was 1.08 µM (active); in assay [8], 0.865 µM (active); in assay [9], 2.77 µM (active).
As to `C=CCn1c(SCC(=O)c2[nH]c(C)c(C(=O)OC)c2C)nc2scc(-c3ccc(OC)c(OC)c3)c2c1=O`, the half-maximal activity concentration (AC50) in assay [7] is 41.2 µM (active); in assay [8], 2.01 µM (active); in assay [9], 24.8 µM (active). The EC50 is 6.33 µM (active) in assay [12], 8.16 µM (active) in [13] and 5.89 µM (active) in [14].
As for `O=C1Nc2ccccc2C1=Nc1ccc2[nH]c3ccccc3c2c1`, in assay [11], the IC50 was 16.6 µM (active).
With `CSc1nc(N)nc2c1ncn2CC(=O)N1CCN(Cc2c(C)cc(C)cc2C)CC1`, the AC50 was 33.6 µM (active) in assay [7], 0.526 µM (active) in assay [8], 1.98 µM (active) in the assay on INS1 and 2.02 µM (active) in [9].
For the compound `Cc1ccccc1OCCn1cc(C(=S)N2CCCC2)c2ccccc21`, the AC50 in [7] was > 70 µM (inactive); in assay [8], 24.3 µM (active); in assay [9] it was 20.9 µM (active).
Regarding `Cc1csc(=O)n1CC(=O)OC(C)C(=O)Nc1ccc(N(C)C)cc1` (stereo unspecified), the IC50 in assay [11] was 51.4 µM (active).
As for `C[C@@H]1CN([C@H](C)CO)S(=O)(=O)c2ccc(C#Cc3ccncc3)cc2O[C@H]1CN(C)C(=O)Nc1ccc2c(c1)OCO2`, at Paired box protein Pax-8, the AC50 is 3.68 µM (active).
For the compound `O=C(C[C@H]1CC[C@@H]2[C@H](COC[C@@H](O)CN2Cc2ccc(F)cc2)O1)NCc1ccccc1Cl`, the AC50 at Paired box protein Pax-8 is 41.2 µM (active).
On to `C[C@@H]1CN([C@H](C)CO)C(=O)c2cc(NS(=O)(=O)c3ccc(F)cc3)ccc2O[C@@H]1CN(C)Cc1ccc(C(F)(F)F)cc1`, for which the AC50 at Paired box protein Pax-8 is 22.2 µM (active).
The same measure, in the same setting: the result for `C[C@@H]1CCCCO[C@H](CN(C)Cc2ccc(C(F)(F)F)cc2)[C@@H](C)CN([C@@H](C)CO)C(=O)c2cc(NS(=O)(=O)c3cccs3)ccc2O1` reads 7.62 µM (active).
Regarding `O=C(CNS(=O)(=O)c1ccccc1)N/N=C/c1ccc(O)cc1`, the IC50 in [11] is 60 µM (active).
With `COc1ccc(C(=O)N/N=C(\Cc2ncc[nH]2)c2ccccc2)cc1`, the EC50 was 1.46 µM (active) in assay [3], 7.77 µM (active) in assay [4], > 38 µM (not active) in [5] and 7.31 µM (active) in [6].
With `CCN(/C=N/C1=NN(c2cccc(C(F)(F)F)c2)CC1)CC`, in assay [11], the IC50 was 32.9 µM (active).
Same read-out and setting: the result for `COc1cc(/C=N/NC(=O)C(C)Nc2nnc(O)nc2O)ccc1O` (stereo unspecified) reads 57.2 µM (active).
